How the values were obtained:
[1] = tested on: Salmonella enteric serovar typhi; assay: Agar disc diffusion antibacterial test; assay type: cell-based; details: B; for zone of inhibition at 100 µM: 20 µL of 100 µM on 6 mm disc, Control (DMSO) = 6 mm, read-out: diameter of clear zone inhibition; for Inhibition %: (T–C)/T × 100
Escherichia coli = assay: Agar disc diffusion antibacterial test; details: for Inhibition %: A, (-) Escherichia coli, (T–C)/T × 100; for zone of inhibition at 100 µM: Escherichia coli, read-out: diameter of clear zone inhibition
[2] = tested on: Chromo bacterium violaceum; assay: Agar disc diffusion antibacterial test; details: for Inhibition %: C, (-) Chromo bacterium violaceum, (T–C)/T × 100; for zone of inhibition at 100 µM: read-out: diameter of clear zone inhibition
Pseudomonas aeruginosa = assay: Agar disc diffusion antibacterial test; details: for Inhibition %: D, (-) Pseudomonas aeruginosa, (T–C)/T × 100; for zone of inhibition at 100 µM: Pseudomonas aeruginosa, read-out: diameter of clear zone inhibition
Shigella flexneri = assay: Agar disc diffusion antibacterial test; details: for Inhibition %: E, (-) Shigella flexneri, (T–C)/T × 100; for zone of inhibition at 100 µM: Shigella flexneri, read-out: diameter of clear zone inhibition
Staphylococcus Aureus = assay: Agar disc diffusion antibacterial test; details: for Inhibition %: F, (+) Staphylococcus Aureus, (T–C)/T × 100; for zone of inhibition at 100 µM: Staphylococcus aureus, read-out: diameter of clear zone inhibition
Bacillus cereus = assay: Agar disc diffusion antibacterial test; details: for zone of inhibition at 100 µM: Bacillus cereus, read-out: diameter of clear zone inhibition; for Inhibition %: G, (+) Bacillus cereus, (T–C)/T × 100
Aspergillus niger = assay: Agar disc diffusion antifungal test; details: for Inhibition %: H, (T–C)/T × 100; for zone of inhibition at 100 µM: read-out: diameter of clear zone inhibition
Candida albicans = assay: Agar disc diffusion antifungal test; details: for Inhibition %: I, (T–C)/T × 100; for zone of inhibition at 100 µM: read-out: diameter of clear zone inhibition
Mucor indicus = assay: Agar disc diffusion antifungal test; details: for Inhibition %: J, (T–C)/T × 100; for zone of inhibition at 100 µM: read-out: diameter of clear zone inhibition
[3] = DPPH radical scavenging assay; assay type: biochemical; details: 517 nm
[4] = Hydroxyl radical scavenging assay; assay type: biochemical; details: 230 nm
[5] = Superoxide scavenging assay; assay type: biochemical; details: 590 nm
[6] = Nitric oxide scavenging assay; assay type: biochemical; details: 546 nm
[7] = tested on: A549 Human lung cancer cell line; assay: MTT cell viability assay; assay type: cell-based; details: 72 h exposure, at least three independent experiments
[8] = tested on: HepG2 Liver cancer cell line; assay: MTT cell viability assay; assay type: cell-based; details: 72 h exposure, at least three independent experiments
[9] = tested on: MCF-7 Breast cancer cell line; assay: MTT cell viability assay; assay type: cell-based; details: 72 h exposure, at least three independent experiments
[10] = tested on: NHDF Normal human dermal fibroblasts cell line; assay: MTT cell viability assay; assay type: cell-based; details: 72 h exposure
CT-DNA = assay: DNA binding affinity by viscometric (hydrodynamic) titration; parameters: species or system calf; details: for Relative Specific Viscosity (η/η0)^1/3: DNA 100 µM; for Slope of (η/η0)^1/3 vs [Compound]/[DNA]: linear plot, R 0.2–1.0
Protocol: The hydrodynamic titrations were carried out for all substances along with ethidium bromide (control) at 20, 40, 60, 80, 100 µM concentrations. In the Ostwald viscometer, these substances were also separately treated with the deoxyribonucleic acid solution (100 µM).
2.2.4. Viscometry-based titration for investigation of DNA binding
The Viscometry-based titration measurements were further supportive and delivered data about the binding modes between test compound and DNA base pairs. Nevertheless, it does not deliver definite confirmation for the exact mode of interactions. The experiment performed for all test compounds and ethidium bromide (control) at various concentrations 20, 40, 60, 80, 100 µM and each compound mixed with the CT-DNA solution (100 µM) in the Ostwald viscometer. With an accuracy of 0.01 seconds, a digital stopwatch was used to measure the average flow time. Due to the enhancement of the DNA's overall contour length during the separation of base pairs at intercalation sites, the classical intercalative mode […]
Generally, the compounds may result in less positive/negative or no viscosity change if they bind with DNA base pairs via […]
major or minor grooves [ 26]. […]
compounds via intercalation.

NCC[C@H](O)C(=O)N[C@@H]1C[C@H](N)[C@@H](O[C@H]2O[C@H](CN)[C@@H](O)[C@H](O)[C@H]2O)[C@H](O)[C@H]1O[C@H]1O[C@H](CO)[C@@H](O)[C@H](N)[C@H]1O [Amikacin, reference compound]
zone of inhibition at 100 µM [1]: 22 mm | Inhibition % [1]: 73% | Inhibition % (Escherichia coli): 73% | zone of inhibition at 100 µM (Escherichia coli): 22 mm | Inhibition % [2]: 75% | zone of inhibition at 100 µM [2]: 24 mm | Inhibition % (Pseudomonas aeruginosa): 70% | zone of inhibition at 100 µM (Pseudomonas aeruginosa): 20 mm | Inhibition % (Shigella flexneri): 70% | zone of inhibition at 100 µM (Shigella flexneri): 20 mm | Inhibition % (Staphylococcus Aureus): 70% | zone of inhibition at 100 µM (Staphylococcus Aureus): 20 mm | zone of inhibition at 100 µM (Bacillus cereus): 20 mm | Inhibition % (Bacillus cereus): 70%

C[C@@H]1[C@H](O)[C@@H](C)/C=C/C=C/C=C/C=C/C=C/C=C/C=C/[C@H](O[C@@H]2O[C@H](C)[C@@H](O)[C@H](N)[C@@H]2O)C[C@@H]2O[C@](O)(C[C@@H](O)C[C@@H](O)[C@H](O)CC[C@@H](O)C[C@@H](O)CC(=O)O[C@H]1C)C[C@H](O)[C@H]2C(=O)O [Amphotericin B, reference compound]
Inhibition % (Aspergillus niger): 60% | zone of inhibition at 100 µM (Aspergillus niger): 15 mm | Inhibition % (Candida albicans): 65% | zone of inhibition at 100 µM (Candida albicans): 17 mm | Inhibition % (Mucor indicus): 65% | zone of inhibition at 100 µM (Mucor indicus): 17 mm

O=C1O[C@H]([C@@H](O)CO)C(O)=C1O [Ascorbic acid, ascorbic acid, reference compound]
% Inhibition, DPPH ([3]; 40 µM): 41.63% | % Inhibition, DPPH ([3]; 80 µM): 53.74% | % Inhibition, DPPH ([3]; 120 µM): 58.95% | % Inhibition, DPPH ([3]; 160 µM): 70.86% | % Inhibition, DPPH ([3]; 200 µM): 82.75% | % Inhibition, DPPH ([3]; 240 µM): 85.65% | IC50 [3]: 80 µM | % Inhibition, hydroxyl radical ([4]; 40 µM): 20.73% | % Inhibition, hydroxyl radical ([4]; 80 µM): 36.46% | % Inhibition, hydroxyl radical ([4]; 120 µM): 47.87% | % Inhibition, hydroxyl radical ([4]; 160 µM): 59.65% | % Inhibition, hydroxyl radical ([4]; 200 µM): 65.64% | % Inhibition, hydroxyl radical ([4]; 240 µM): 78.83% | IC50 ([4]; read-out: IC50, hydroxyl radical inhibition): 160 µM | % Inhibition, superoxide ([5]; 40 µM): 29.64% | % Inhibition, superoxide ([5]; 80 µM): 41.72% | % Inhibition, superoxide ([5]; 120 µM): 55.63% | % Inhibition, superoxide ([5]; 160 µM): 66.75% | % Inhibition, superoxide ([5]; 200 µM): 72.55% | % Inhibition, superoxide ([5]; 240 µM): 84.85% | IC50 [5]: 120 µM | % Inhibition, nitric oxide ([6]; 40 µM): 28.55% | % Inhibition, nitric oxide ([6]; 80 µM): 35.75% | % Inhibition, nitric oxide ([6]; 120 µM): 43.65% | % Inhibition, nitric oxide ([6]; 160 µM): 52.68% | % Inhibition, nitric oxide ([6]; 200 µM): 63.72% | % Inhibition, nitric oxide ([6]; 240 µM): 72.73%

N.N.[Cl][Pt][Cl] [Cisplatin, cisplatin, reference compound]
IC50 [7]: 31.9 ± 1.6 µM | IC50 [8]: 22.9 ± 1.1 µM | IC50 [9]: 20.2 ± 1 µM | IC50 [10]: 26.9 ± 1.3 µM

CC[n+]1c(-c2ccccc2)c2cc(N)ccc2c2ccc(N)cc21 [EB, ethidium bromide, reference compound]
Relative Specific Viscosity (η/η0)^1/3 (CT-DNA; R = [Complex]/[DNA] = 0.2): 1.01 | Relative Specific Viscosity (η/η0)^1/3 (CT-DNA; R = [Complex]/[DNA] = 0.4): 1.35 | Relative Specific Viscosity (η/η0)^1/3 (CT-DNA; R = [Complex]/[DNA] = 0.6): 1.63 | Relative Specific Viscosity (η/η0)^1/3 (CT-DNA; R = [Complex]/[DNA] = 0.8): 1.82 | Relative Specific Viscosity (η/η0)^1/3 (CT-DNA; R = [Complex]/[DNA] = 1.0): 1.99 | Slope of (η/η0)^1/3 vs [Compound]/[DNA] (CT-DNA): 1.2859 | Slope of (η/η0)^1/3 vs [Compound]/[DNA] (CT-DNA; listed as (EB)): 1.286

CC(=O)N1CCN(c2ccc(OCC3COC(Cn4ccnc4)(c4ccc(Cl)cc4Cl)O3)cc2)CC1 (stereo not drawn) [Ketoconazole, reference compound]
Inhibition % (Aspergillus niger): 63% | zone of inhibition at 100 µM (Aspergillus niger): 16 mm | Inhibition % (Candida albicans): 67% | zone of inhibition at 100 µM (Candida albicans): 18 mm | Inhibition % (Mucor indicus): 67% | zone of inhibition at 100 µM (Mucor indicus): 18 mm

[H]/N=C(/N)N[C@H]1[C@H](O)[C@@H](O)[C@H](O[C@@H]2O[C@@H](C)[C@](O)(C=O)[C@H]2O[C@@H]2O[C@@H](CO)[C@H](O)[C@@H](O)[C@@H]2NC)[C@@H](N/C(N)=N\[H])[C@@H]1O [Streptomycin, reference compound]
zone of inhibition at 100 µM [1]: 26 mm | Inhibition % [1]: 77% | Inhibition % (Escherichia coli): 75% | zone of inhibition at 100 µM (Escherichia coli): 24 mm | Inhibition % [2]: 75% | zone of inhibition at 100 µM [2]: 24 mm | Inhibition % (Pseudomonas aeruginosa): 71% | zone of inhibition at 100 µM (Pseudomonas aeruginosa): 21 mm | Inhibition % (Shigella flexneri): 76% | zone of inhibition at 100 µM (Shigella flexneri): 25 mm | Inhibition % (Staphylococcus Aureus): 71% | zone of inhibition at 100 µM (Staphylococcus Aureus): 21 mm | zone of inhibition at 100 µM (Bacillus cereus): 21 mm | Inhibition % (Bacillus cereus): 71%
